Experimental data as given in patent US20140107116A1, “BENZOTHIAZOLE DERIVATIVES FOR THE TREATMENT OF DIABETES” (MERCK SERONO SA, priority 2003, published 2014).

Tested on: db/db mice
Assay: Oral postprandial glycemia in db/db mice (experimental model of type II diabetes)
Assay type: in vivo
Settings: 100 mg/kg p.o., db/db mice fasted 20 h then fed, compared to vehicle group; for decrease in blood glucose level: 4 hrs after administration; for decrease in insulin level: serum insulin (ELISA) 4 hrs after administration
Description: In Vivo Assay: Experimental Model of Type II Diabetes (Oral Postprandial Glycemia in db/db Mice)
The following assay aims at determining the anti-diabetic effect of the test compounds of formula (I) in a model of postprandial glycemia in db/db mice, in vivo.
The assay was performed as follows:
A total of 18 db/db mice (about 8-9 weeks; obtained from IFFACREDO, l'Arbreste, France) were fasted during 20 hours.
3 groups, each consisting of 6 animals were formed: • Group 1: The animals were administered (per os) a dose of […] of vehicle. • Group 2: The animals were administered (per os) a dose of 50 mg/kg of the test compound according to formula (I). • Group 3: The animals were administered (per os) a dose of 100 mg/kg of the test compound according to formula (I).
After oral administration of the compounds of formula (I) solubilized or suspended in CarboxyMethylCellulose (0.5%), Tween 20 (0.25%) and water as vehicle, the animals had access to commercial food (D04, UAR, Villemoisson/Orge, France) ad libitum. The diabetic state of the mice was verified by determining the blood glucose level before drug administration. Blood glucose and serum insulin levels were then determined 4 hrs after drug administration.
The determination of the blood glucose level was performed using a glucometer (Precision Q.I.D., Medisense, Abbot, ref. 212.62.31).
The determination of the Insulin level was performed using an ELISA kit (Crystal CHEM, Ref. INSK R020).
Changes in blood glucose and serum insulin of drug treated mice were expressed as a percentage of control (group 1: vehicle treated mice).

SMILES | decrease in blood glucose level [%] | decrease in insulin level [%]
N#CC(c1ccnc(OCc2ccc(CN3CCOCC3)cc2)n1)c1nc2ccccc2s1 (stereo not shown) [1,3-benzothiazol-2-yl(2-{[4-(morpholin-4-ylmethyl)benzyl]oxy}-pyrimidin-4-yl)acetonitrile] | 22 | 36
N#CC(c1ccnc(NCCc2cccnc2)n1)c1nc2ccccc2s1 (stereo not shown) [1,3-benzothiazol-2-yl(2-{[2-(3-pyridinyl)ethyl]amino}-4-pyrimidinyl)acetonitrile] | 38 | 64
